Results as given in the NIST ThermoML archive (doi:10.1021/acs.jced.8b00692).
± gives the expanded uncertainty stated by the source.

Assay: xn = mol fraction of the nth substance listed
Settings: 102 kPa, Liquid; for viscosity: Concentric cylinders viscometry; for speed of sound: Frequency=3 MHz, Single path-length method; for mass density: Vibrating tube method

CCCCCCCCCCCCC1CCCCC1 [dodecylcyclohexane] + CCCCCCCCCCCCCCCC
Settings | mass density [kg/m3] | speed of sound [m/s] | viscosity [mPa·s]
293.15 K, x1 = 0.2002 | 783.66 ± 0.81 | 1370.4 ± 0.7 | 4.02 ± 0.02
293.15 K, x1 = 0.4001 | 793.67 ± 0.81 | 1384 ± 0.7 | 4.72 ± 0.02
293.15 K, x1 = 0.5001 | 798.59 ± 0.81 | 1390.6 ± 0.7 | 5.11 ± 0.02
293.15 K, x1 = 0.6003 | 803.47 ± 0.81 | 1396.7 ± 0.7 | 5.49 ± 0.05
293.15 K, x1 = 0.8001 | 812.98 ± 0.81 | 1410.4 ± 0.8 | 6.49 ± 0.03
293.15 K, x1 = 1 | 822.31 ± 0.81 | 1423.3 ± 0.9 | 7.76 ± 0.04
303.15 K, x1 = 0.2002 | 776.77 ± 0.81 | 1333.2 ± 0.7 | 3.17 ± 0.02
303.15 K, x1 = 0.4001 | 786.84 ± 0.81 | 1347 ± 0.7 | 3.66 ± 0.02
303.15 K, x1 = 0.5001 | 791.79 ± 0.81 | 1353.7 ± 0.7 | 3.95 ± 0.02
303.15 K, x1 = 0.6003 | 796.69 ± 0.81 | 1359.9 ± 0.7 | 4.23 ± 0.02
303.15 K, x1 = 0.8001 | 806.26 ± 0.81 | 1373.4 ± 0.8 | 4.93 ± 0.02
303.15 K, x1 = 1 | 815.65 ± 0.81 | 1386.3 ± 0.9 | 5.81 ± 0.03
313.15 K, x1 = 0.2002 | 769.91 ± 0.81 | 1296.9 ± 0.7 | 2.56 ± 0.02
313.15 K, x1 = 0.4001 | 780.03 ± 0.81 | 1310.8 ± 0.7 | 2.92 ± 0.02
313.15 K, x1 = 0.5001 | 785.01 ± 0.81 | 1317.6 ± 0.7 | 3.13 ± 0.02
313.15 K, x1 = 0.6003 | 789.93 ± 0.81 | 1323.8 ± 0.7 | 3.34 ± 0.02
313.15 K, x1 = 0.8001 | 799.57 ± 0.81 | 1337.3 ± 0.8 | 3.85 ± 0.02
313.15 K, x1 = 1 | 809.01 ± 0.81 | 1350.4 ± 0.9 | 4.48 ± 0.02
323.15 K, x1 = 0.2002 | 763.05 ± 0.81 | 1261.2 ± 0.7 | 2.1 ± 0.02
323.15 K, x1 = 0.4001 | 773.23 ± 0.81 | 1275.3 ± 0.7 | 2.38 ± 0.02
323.15 K, x1 = 0.5001 | 778.23 ± 0.81 | 1282.1 ± 0.7 | 2.54 ± 0.02
323.15 K, x1 = 0.6003 | 783.19 ± 0.81 | 1288.5 ± 0.7 | 2.7 ± 0.02
323.15 K, x1 = 0.8001 | 792.89 ± 0.81 | 1302 ± 0.8 | 3.09 ± 0.02
323.15 K, x1 = 1 | 802.37 ± 0.81 | 1315.2 ± 0.9 | 3.55 ± 0.02
333.15 K, x1 = 0.2002 | 756.19 ± 0.81 | 1226.5 ± 0.7 | 1.76 ± 0.01
333.15 K, x1 = 0.4001 | 766.43 ± 0.81 | 1240.6 ± 0.7 | 1.97 ± 0.02
333.15 K, x1 = 0.5001 | 771.46 ± 0.81 | 1247.5 ± 0.7 | 2.1 ± 0.02
333.15 K, x1 = 0.6003 | 776.44 ± 0.81 | 1254.3 ± 0.7 | 2.23 ± 0.02
333.15 K, x1 = 0.8001 | 786.2 ± 0.81 | 1267.8 ± 0.8 | 2.53 ± 0.02
333.15 K, x1 = 1 | 795.74 ± 0.81 | 1281.1 ± 0.9 | 2.88 ± 0.02
343.15 K, x1 = 0.2002 | 749.3 ± 0.8 | – | 1.49 ± 0.01
343.15 K, x1 = 0.4001 | 759.7 ± 0.8 | – | 1.67 ± 0.01
343.15 K, x1 = 0.5001 | 764.7 ± 0.8 | – | 1.77 ± 0.01
343.15 K, x1 = 0.6003 | 769.7 ± 0.8 | – | 1.88 ± 0.02
343.15 K, x1 = 0.8001 | 779.6 ± 0.8 | – | 2.11 ± 0.02
343.15 K, x1 = 1 | 789.1 ± 0.8 | – | 2.39 ± 0.02
353.15 K, x1 = 0.2002 | 742.4 ± 0.8 | – | 1.28 ± 0.01
353.15 K, x1 = 0.4001 | 752.9 ± 0.8 | – | 1.43 ± 0.01
353.15 K, x1 = 0.5001 | 757.9 ± 0.8 | – | 1.51 ± 0.01
353.15 K, x1 = 0.6003 | 763 ± 0.8 | – | 1.6 ± 0.01
353.15 K, x1 = 0.8001 | 772.9 ± 0.8 | – | 1.79 ± 0.02
353.15 K, x1 = 1 | 782.5 ± 0.8 | – | 2.01 ± 0.02
363.15 K, x1 = 0.2002 | 735.6 ± 0.8 | – | 1.14 ± 0.01
363.15 K, x1 = 0.4001 | 746.1 ± 0.8 | – | 1.24 ± 0.01
363.15 K, x1 = 0.5001 | 751.1 ± 0.8 | – | 1.31 ± 0.01
363.15 K, x1 = 0.6003 | 756.2 ± 0.8 | – | 1.38 ± 0.01
363.15 K, x1 = 0.8001 | 766.2 ± 0.8 | – | 1.54 ± 0.01
363.15 K, x1 = 1 | 775.9 ± 0.8 | – | 1.72 ± 0.02
373.15 K, x1 = 0.2002 | 728.7 ± 0.8 | – | 0.978 ± 0.012
373.15 K, x1 = 0.4001 | 739.3 ± 0.8 | – | 1.08 ± 0.01
373.15 K, x1 = 0.5001 | 744.3 ± 0.8 | – | 1.14 ± 0.01
373.15 K, x1 = 0.6003 | 749.4 ± 0.8 | – | 1.21 ± 0.01
373.15 K, x1 = 0.8001 | 759.5 ± 0.8 | – | 1.34 ± 0.01
373.15 K, x1 = 1 | 769.2 ± 0.8 | – | 1.48 ± 0.01
